Assay results as given in patent US8367659B2, “Oxazinyl isoflavonoid compounds, medicaments and use” (Marshall Edwards, Inc., priority 2007, dated 2013).
Entries after “also recorded” stand apart in the source; their conditions may differ. Like-named read-outs stand apart in the source and are kept apart here.

Experiments:
[1] = system: NFκB-promoter activity in TNFa-stimulated THP-1 monocyte/macrophages; assay: NFκB promoter activity in TNFα-stimulated THP-1 cells (beta-lactamase reporter); type: cell-based, human; settings: for inhibition at 30 µM: Homo sapiens, THP-1, read-out: % inhibition compared to control; for inhibition at 30 µM / Inflammatory index: test compound 30 μM; for Inflammatory index: control 11.56 ± 0.49
Protocol: The assay utilizes a genetically modified THP-1 cell line and GeneBLAzer® beta-lactamase technology (Invitrogen Corp). The human THP-1 monocyte/macrophages contain a stably-transfected beta-lactamase reporter gene under control of the NFκB response element They respond to stimulation with TNF-a, which leads to activation of the NFκB signaling pathway. Co-incubation of cells with TNF-a and test material allows quantitative determination of the ability of test material to inhibit TNFa-stimulated beta-lactamase production. Inflammatory index is calculated as the ratio of beta-lactamase product to beta-lactamase substrate. In brief, genetically modified THP-1 cells were seeded into wells of a 96-well plate (50×10^3 cells/well) in the presence of RPMI 1640 medium (70 μl). TNFα was added to each well (10 μl) to give a final concentration of 7.5 ng/ml. Dialyzed bovine serum was added (10 μl). Compounds dissolved in DMSO (10 μL) were then added (5 wells for each compound). Each plate contained a no-cell control (4 wells), a no-serum control (4 wells) and two serum controls. Plates were incubated for 5 h at 37° C. to allow for NFκB-stimulated beta-lactamase production. LiveBLAzer™ FRET B/G Substrate (CCF4-AM) substrate was then added to assay. CCF4-AM is a Forster resonance energy transfer (FRET) based substrate for beta-lactamase developed by Invitrogen Corp. Once CCFA-AM enters a cell, it is converted to negatively charged CCF4 by endogenous esterases. Excitation of this substrate at 409 nm leads to efficient FRET between the coumarin and fluorescein moieties, resulting in a green fluorescence detectable at 530 nm. The presence of beta-lactamase leads to cleavage of CCF4 and results in a loss of FRET, resulting in a robust blue fluorescent signal detectable at 460 nm. Thus, activity of beta-lactamase (a marker of NFκB-promoter activity) is measured as a product to substrate ratio (blue/green fluorescence ratio: 460 nm/530 nm). The determination of inflammatory index has a within-plate CV of 2.1% and a between-plate CV of 8.9% This comparative study was conducted according to the assay method set out in the example at Section 2.4 above.

red blood cells (RBC) = assay: Peroxyl radical (AAPH)-induced red blood cell lysis; type: cell-based; settings: for Time taken to reach half-lysis, time: test compounds at 10 μM, vehicle 40.0
Protocol: Freshly collected heparinised venous blood (10 ml, on ice) was aliquotted into 1.8 ml sterile Eppendorf tubes and centrifuged for 10 minutes at 2600 rpm at 4° C. Plasma and buffy coat layers were removed (approximately […]) and packed red blood cells (RBC) were then washed by the addition of […], ice cold PBS. This washing procedure was repeated twice. Packed RBC were resuspended by the addition of 900 ml of ice-cold, sterile PBS (and termed RBC stock). RBC stocks were stored at 4° C. for a maximum of three days. All working suspensions of RBC were prepared fresh daily by diluting […] of RBC stock into 10 ml of ice-cold, sterile PBS and […] added to each well.
Stocks of AAPH were freshly prepared for individual experiments as follows. AAPH (1.22 gm) was dissolved in 7.5 ml of PBS to yield a 4× stock at 600 mM and […] aliquots (final concentration of 150 mM) were then added to each well to initiate the lysis assay. Stock solutions of test compounds (40 mM in 100% DMSO) were diluted in sterile PBS to yield final concentrations of […] per well. Appropriate controls were included in each experiment. All compound dilutions were adjusted to give final DMSO concentrations in each well of 0.25%. Peroxy-induced RBC lysis assays were performed in 96-flat bottom well microtitre plates with a total volume of […] per well. Turbidity of RBC suspensions were monitored using a Tecan microplate reader at 690 nm (37° C.) with gentle vortexing. Assays were performed in quadruplicate and readings were taken every 5 minutes over 5 hours. RBC lysis curves were constructed by plotting absorbance (mean of 4 readings) against time. Time to half-lysis was calculated by taking the highest absorbance reading (no lysis) and the lowest absorbance reading (maximum lysis). The sum of these two readings divided by two gave the absorbance at half-lysis. Simple regression analysis was used to calculate the time at which half-lysis absorbance occurred.
This comparative study was conducted according to the assay method set out in the example at Section 3.3 above.

CP70 = assay: Anti-cancer activity, CP70 ovarian cancer cells (MTT); type: cell-based; settings: 120 h, 5 days
[2] = system: A7r5 rat aortic smooth muscle cells; assay: Proliferation of A7r5 rat aortic smooth muscle cells; type: cell-based; settings: A7R5, 72 h, three days, read-out: IC50, inhibition of proliferation in A7r5 cells
Protocol: The effect of test compounds on human umbilical vein smooth muscle cells (HUVSMC), was examined. Cells, tissue explants from a neonate (HRI—passage 2), were seeded into 96 well plates at 1×10^3 cells per well, and allowed to attach for 24 hours. They were then washed twice and incubated in medium without foetal calf serum (FCS) for 24-48 hours to serum-starve them. Test compounds were prepared in medium without FCS and added to the plates and incubated for one hour. Medium with FCS was added to give a final concentration of 10% and the plates incubated for 4-5 days until the controls were just confluent.
The effect of test compounds on rat aortic smooth muscle cell line (A7r5) and another cell line from the media of rat aorta (A10) was examined. The methodology was the same as for HUVSMC, except that the cells were treated with compound for three days.

[3] = Free radical scavenging with DPPH; settings: for EC50: DPPH, read-out: Free radical scavenging ability EC50
Procedure, shortened: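 Compounds reacted with DPPH in ethanol for 20 min, screened at 100 μM, and absorbance at 517 nm compared with a DPPH-ethanol blank. IC50 was taken as the concentration giving a 0.6 absorbance change, with 1.2 units representing total scavenging.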

IC50 (CP70) | EC50 ([3]; 20 minutes, absorbance 517 nm, Table 4) | EC50 ([3]; comparative, Table 13) | SMILES | inhibition at 30 µM [1] | Inflammatory index [1] | Time taken to reach half-lysis, time (red blood cells (RBC); Table 8) | Time taken to reach half-lysis, time (red blood cells (RBC); comparative, Table 14) | IC50 [2] | antioxidant activity, AAPH-induced time to half-lysis of red blood cells (red blood cells (RBC)) | NFκB inhibition ([1]; 30 μM, FIG. 19) | free radical scavenging / antioxidant activity in DPPH screen ([3]; 100 μM, ΔAbs>0.3 criterion)
5.51 ± 2.6 µM | – | – | Oc1ccc(C2=Cc3cc4c(cc3OC2)OCN(Cc2ccccc2)C4)cc1 [Compound 1, 4-(3-Benzyl-2,3,4,8-tetrahydrochromeno[6,7-e][1,3]oxazin-7-yl)phenol] | 45.5% | 6.31 ± 0.36 | 141.6 min | 141.6 min | 23 µM | – | – | –
8.1 ± 3 µM | 21.4 µM | – | CC(c1ccccc1)N1COc2cc3c(cc2C1)C=C(c1ccc(O)cc1)CO3 (stereo not drawn) [Compound 2, 4-(3-(1-Phenylethyl)-2,3,4,8-tetrahydrochromeno[6,7-e][1,3]oxazin-7-yl)phenol] | 34.8% | 7.54 ± 0.17 | 124.3 min | – | – | delaying the AAPH-induced time to half-lysis | – | –
– | – | 55 µM | Oc1cccc(C2=Cc3ccc(O)cc3OC2)c1 [Compound 37-DHE, 3′,7-dihydroxy-isoflav-3-ene, reference compound] | – | – | – | 126.6 min | 45 µM | delaying the AAPH-induced time to half-lysis | inhibited NFκB | free radical scavenging activity; also recorded: potent free radical scavenging ability
